# Results reported in EPA's ToxValDB 9.5.
# Where “and” joins values, the source holds several entries; their conditions need not be identical. Equal entries are not always repeated.
# Experiments:
# Rattus norvegicus [1] = conditions: for LD50 / LC50: acute
# Rattus norvegicus [2] = test system: Rattus norvegicus
# Rattus norvegicus [3] = conditions: for LOEL / NOEL: Hershberger, gavage; for LEL: uterotrophic, duration: 3 days, Active
# Rattus norvegicus [4] = conditions: oral, gavage, Sprague-Dawley
# [5] = repeat dose other, inhalation, B6C3F1
# [6] = duration: 10 days, oral, Sprague-Dawley, active + Antiandrogenic + anti-androgenic
# [7] = duration: 10 days, oral, Wistar, active + Negative + Antiandrogenic + anti-androgenic
# [8] = duration: 7 days, oral, Sprague-Dawley, active + Antiandrogenic + anti-androgenic
# [9] = reproduction developmental, duration: 7 days, F, generation: P0, P0: Developmental: Whole Body: Litter Size + P0: Developmental: Whole Body: Male Pups per Pups Sexed
# [10] = short-term, duration: 21 days, M, Endocrine: Multi-Organ: Estradiol, Serum + Endocrine: Multi-Organ: Follicular Stimulating Hormone (FSH), Serum + Endocrine: Multi-Organ: …
# [11] = short-term, duration: 21 days, M, Endocrine: Multi-Organ: Estradiol, Serum + Endocrine: Multi-Organ: Follicular Stimulating Hormone (FSH), Serum + Metabolic: Multi-Organ: …
# [12] = short-term, duration: 21 days, M, Endocrine: Multi-Organ: Testosterone (T), Serum + Reproductive: Epididymis: Epididymis Weight, Absolute + Reproductive: Testis: Testis …
structure (smiles),measurement,setting,value
CCCCCCCCCCCCCCCCCCOC(=O)CCSCCC(=O)OCCCCCCCCCCCCCCCCCC [Distearyl thiodipropionate],LD50,"Mus musculus; acute, injection, Intraperitoneal",> 2000 mg/kg
same,LD50,"Mus musculus; acute, oral",> 2000 mg/kg
same,LD50,Rattus norvegicus [1]; dermal,> 2000 mg/kg
same,LD50,Rattus norvegicus [1]; oral,> 5000 mg/kg
C1CO1 [Ethylene oxide],NOAEL,"Rattus norvegicus [2]; developmental, duration: 364 days, inhalation, whole body, M/F, CD, developmental",18 mg/m3
CC(C)COC(=O)C(C)C [Isobutyl isobutyrate],LD50,"Mus musculus; acute, oral",> 6400 mg/kg
same,LD50,Rattus norvegicus [1]; oral,> 6400 mg/kg
C=CC(=C)C [Isoprene],LC50,"Mus musculus; acute, inhalation",180000 mg/m3 and 157000 mg/m3
same,NOAEL,"Mus musculus; developmental, duration: 6 days, inhalation, CD-1/Swiss, generation: F1",19500 mg/m3
same,LOAEL,Mus musculus; [5],195 mg/m3
same,NOAEL,Mus musculus; [5],27.9 mg/m3
same,NOAEL,"Mus musculus; reproduction developmental, inhalation, B6C3F1",195 mg/m3
same,LC50,Rattus norvegicus [1]; inhalation,180000 mg/m3 and 157000 mg/m3
same,NOAEL,"Rattus norvegicus [1]; developmental, duration: 6 days, inhalation, Sprague-Dawley, generation: F1",19500 mg/m3
same,NOAEL,"Rattus norvegicus [1]; reproduction developmental, inhalation, Fischer 344",195 mg/m3
CCCCC(CC)COC(=O)c1ccccc1C(=O)O (stereo unspecified) [MEHP],LOEL,Rattus norvegicus [3]; [6],50 mg/kg-day
same,NOEL,Rattus norvegicus [3]; [6],10 mg/kg-day
CC(=O)[C@@]1(O)CC[C@H]2[C@@H]3C[C@H](C)C4=CC(=O)CC[C@]4(C)[C@H]3CC[C@@]21C [Medroxyprogesterone],LOEL,Rattus norvegicus [3]; [7],100 mg/kg-day
same,NOEL,Rattus norvegicus [3]; [7],20 mg/kg-day
"CCN(O)CC [N,N-Diethylhydroxylamine]",LD50,"Mus musculus; acute, oral",2150 mg/kg
same,LC50,"Rattus norvegicus [1]; inhalation, Sprague-Dawley",11400 mg/m3
same,LD50,"Rattus norvegicus [1]; oral, gavage, WBS/W",2190 mg/kg
same,NOAEL,"Rattus norvegicus [1]; reproduction developmental, oral, gavage, F, Sprague-Dawley",250 mg/kg-day
same,NOAEL,"Rattus norvegicus [1]; short-term, duration: 5 days, inhalation, Sprague-Dawley",547 mg/m3
same,NOAEL,"Rattus norvegicus [1]; short-term, duration: 28 days, inhalation, Sprague-Dawley",547 mg/m3
"O=C1CCC(=O)N1c1cc(Cl)cc(Cl)c1 [N-(3,5-Dichlorophenyl)succinimide]",LOEL,Rattus norvegicus [3]; [8],100 mg/kg-day
same,NOEL,Rattus norvegicus [3]; [8],50 mg/kg-day
NS(=O)(=O)C(F)(F)C(F)(F)C(F)(F)C(F)(F)C(F)(F)C(F)(F)C(F)(F)C(F)(F)F [Perfluorooctanesulfonamide],NOAEL,"Rattus norvegicus [2]; acute, duration: 1 days, oral, gavage, M, Sprague-Dawley, Hepatic: No alterations in liver weight",5 mg/kg-day
O=C(O)C(F)(F)C(F)(F)C(F)(F)C(F)(F)C(F)(F)C(F)(F)C(F)(F)C(F)(F)C(F)(F)C(F)(F)C(F)(F)C(F)(F)F [Perfluorotridecanoic acid],NOAEL,"Rattus norvegicus [4]; developmental, duration: 7 days, M, generation: F1, F1: Developmental: Testis: Fetal Leydig cell number + F1: Developmental: Trunk: Anogenital Distance + F1: Developmental: Whole Body: Pup …",5 mg/kg-day
same,LOAEL,Rattus norvegicus [4]; [9],10 mg/kg-day
same,NOAEL,Rattus norvegicus [4]; [9],5 mg/kg-day
same,LOAEL,"Rattus norvegicus [4]; reproduction developmental, duration: 7 days, F, generation: P0, P0: Developmental: Whole Body: Litter Size + P0: Developmental: Whole Body: Male Pups per Pups Sexed + P0: Reproductive: Whole Body: Birth …",1 mg/kg-day
same,LOAEL,"Rattus norvegicus [4]; reproduction developmental, duration: 7 days, F, generation: P0, P0: Reproductive: Whole Body: Birth rate",1 mg/kg-day
same,NOAEL,"Rattus norvegicus [4]; reproduction developmental, duration: 7 days, F, generation: P0, P0: Whole Body: Whole Body: Clinical Observations, Unspecified + P0: Whole Body: Whole Body: Maternal Body Weight",10 mg/kg-day
same,LOAEL,"Rattus norvegicus [4]; reproduction developmental, duration: 7 days, M, generation: F1, F1: Endocrine: Multi-Organ: Testosterone (T), Serum",1 mg/kg-day
same,LOAEL,Rattus norvegicus [4]; [10],5 mg/kg-day
same,NOAEL,Rattus norvegicus [4]; [10],1 mg/kg-day
same,LOAEL,Rattus norvegicus [4]; [11],10 mg/kg-day
same,NOAEL,Rattus norvegicus [4]; [11],5 mg/kg-day
same,LOAEL,Rattus norvegicus [4]; [12],5 mg/kg-day
same,NOAEL,Rattus norvegicus [4]; [12],1 mg/kg-day
same,NOAEL,"Rattus norvegicus [4]; short-term, duration: 21 days, M, Whole Body: Whole Body: Body Weight Change + Whole Body: Whole Body: Body Weight, Absolute + Whole Body: Whole Body: Clinical Observation …",10 mg/kg-day
CCCCOCCOCCOCc1cc2c(cc1CCC)OCO2 [Piperonyl butoxide],NOEL,"Rattus norvegicus [3]; duration: 10 days, oral, Sprague-Dawley, inactive + Negative + Negative + anti-androgenic + see note",500 mg/kg-day
"CCCCCCCCCCCCOC(=O)CCSCCC(=O)OCCCCCCCCCCCC [Propanoic acid, 3,3'-thiobis-, didodecyl ester]",LD50,"Mus musculus; acute, oral",> 2000 mg/kg
same,LD50,Rattus norvegicus [1]; oral,> 2500 mg/kg
same,NOAEL,"Rattus norvegicus [1]; reproduction developmental, duration: 13 weeks, oral, gavage, Sprague-Dawley",350 mg/kg-day
same,NOAEL,"Rattus norvegicus [1]; subchronic, duration: 13 weeks, oral, gavage, Sprague-Dawley",350 mg/kg-day
CC(=O)S[C@@H]1CC2=CC(=O)CC[C@]2(C)[C@H]2CC[C@@]3(C)[C@@H](CC[C@@]34CCC(=O)O4)[C@H]12 [Spironolactone],LOEL,Rattus norvegicus [3]; [7],40 mg/kg-day
same,NOEL,Rattus norvegicus [3]; [7],8 mg/kg-day
[Sn] [Tin],NOAEL,"Rattus norvegicus [2]; subchronic, duration: 13 weeks, oral, diet, M/F, Wistar, hematological",32 mg/kg-day
CC(C)OB(OC(C)C)OC(C)C [Triisopropyl orthoborate],LD50,"Mus musculus; acute, oral, Swiss",2500 mg/kg
same,LD50,"Rattus norvegicus [1]; oral, gavage",8130 mg/kg
C[C@H]1CCCC(=O)CCCCCc2cc(O)cc(O)c2C(=O)O1 [Zearalanone],LEL,Rattus norvegicus [3]; oral,0.18 mg/day
C[C@H]1CCC[C@H](O)CCC/C=C/c2cc(O)cc(O)c2C(=O)O1 [alpha-Zearalenol],LEL,Rattus norvegicus [3]; oral,0.01 mg/day
CCCCCCCCCc1ccccc1O [n-Nonylphenol],LOEL,"Rattus norvegicus [3]; duration: 10 days, oral, Sprague-Dawley, active + Negative + Antiandrogenic + anti-androgenic + slight delay in timing of PPS, but only 33% of rats had complete separation by end of…",100 mg/kg-day and 160 mg/kg-day
same,LEL,"Rattus norvegicus [3]; injection, subcutaneous",100 mg/kg-day
